Data as given in US20260337225A1, “SMALL PEPTIDE AND USE THEREOF IN MUCOSAL REPAIR” (FORREST BIO-PHARM (SHENZHEN) CO., LTD., priority 2022, published 2026).
Values joined by “and” are separate entries in the source; they are usually repeats but may differ in a detail not shown here. Equal entries are not always repeated. No end group written: not given here.

Assays:
Rat liver = assay: Animal safety observation: rat liver injury (serum alaninetransaminase activity); type: in vivo; settings: 14 days; for Alaninetransaminase Activity, Average / Alaninetransaminase Activity: intragastric gavage, rat serum; for Alaninetransaminase Activity, Average: average of 6 rats, saline average P1 35.83333, P2 30.83333; for Alaninetransaminase Activity: individual rats (Rat 1-6)
Experimental: (§1) The rats were administered with the small peptides via intragastric gavage at doses of 500 mg/kg and 1000 mg/kg daily for 14 days. Changes in body weight were recorded. On day 14, the rats were sacrificed to measure alaninetransaminase (ALT) activity and blood urea nitrogen (BUN) levels in rat serum for assessing whether there was hepatotoxicity and nephrotoxicity in rats.

[1] = Animal safety observation: rat body weight; type: in vivo; settings: for Rat body weight: 1000 mg/kg daily, intragastric gavage, individual rats, Rat 1-7 = c1-c7, 1000 mg/kg
Experimental: as §1

Rat kidney = assay: Animal safety observation: rat kidney injury (serum blood urea nitrogen levels); type: in vivo; settings: 14 days; for Blood Urea Nitrogen Levels: intragastric gavage, rat serum, individual rats (Rat 1-6)
Experimental: as §1

[2] = test system: normal human hepatic parenchymal L-02 cells; assay: Hepatotoxicity: cytotoxicity in L-02 cells by CCK-8 assay; type: cell-based; settings: 10-200 μg/mL, 24 h, in words
Experimental: Referring to the method from a literature (Determination of emodin in L-02 cells and cell culture media with liquid chromatography-mass spectrometry: Application to a cellular toxicokinetic study. J Pharm Biomed Anal. 2012; 71:71-78), normal human hepatic parenchymal L-02 cells (obtained from Shanghai Cell Bank) were seeded into 96-well plates and treated with small peptides P1 and P2 at concentrations of 0 μg/mL, 10 μg/mL, 20 μg/mL, 50 μg/mL, 100 μg/mL, and 200 μg/mL. After 24-hour stimulation, the cytotoxicity was assessed by Cell Counting Kit-8 (CCK-8) assay.

[3] = test system: normal human kidney-2 cells (HK-02, HK-2); assay: Nephrotoxicity: cytotoxicity in HK-2 cells by CCK-8 assay; type: cell-based; settings: 10-200 μg/mL, 24 h, in words
Experimental: Referring to the method from a literature (Sinomenine improve diabetic nephropathy by inhibiting fibrosis and regulating the JAK2/STAT3/SOCS1 pathway in streptozotocin-induced diabetic rats. Life Sci. 2021; 265:118855), normal human kidney-2 cells (HK-02, HK-2) (Shanghai Cell Bank) were seeded into 96-well plates and administered with small peptides P1 and P2 at concentrations of 0 μg/mL, 10 μg/mL, 20 μg/mL, 50 μg/mL, 100 μg/mL, and 200 μg/mL. After 24-hour stimulation, the cytotoxicity was assessed by Cell Counting Kit-8 (CCK-8) assay.

[4] = test system: rat model of chronic gastric ulcer; assay: Rat model of chronic gastric ulcer (anhydrous ethanol followed by aspirin); type: in vivo
Experimental: The function of the small peptides obtained in Embodiment 2 was validated in the present embodiment by using a rat model of chronic gastric ulcer.
Control group (model group): A rat model of chronic gastric ulcer model was constructed by intragastric administration of anhydrous ethanol (1 mL/200 g), followed by intragastric administration of 200 mg/kg aspirin 2 h later. The rats were administered with aspirin once daily for 4 days. At day 5, the rats were administered with an equal volume of saline.
Blank group: The rats were administered with an equal volume of saline.
Drug treatment groups: A rat model of chronic gastric ulcer was constructed as above-mentioned. At day 5, the rats were respectively administered with the rice polypeptide mixture (50 mg/kg), small peptide P1 (0.5 mg/kg), or small peptide P2 (0.5 mg/kg) twice daily for 3 days. On day 4, the rats were sacrificed and their gastric necropsy was performed.
Positive control group (omeprazole 2.6 mg/kg): A rat model of chronic gastric ulcer was constructed as above. At day 5, the rats were administered with omeprazole (2.6 mg/kg) twice daily for 3 days. On day 4, The rats were sacrificed and their gastric necropsy was performed.
Each group consisted of 10 rats. After 24 h of modeling, the rats were sacrificed to extract the gastric tissue, for measuring gastric pH, and observing changes in ulcer area via gastric tissue dissection. Liver and kidney tissues were collected for pathological section observation to assess drug safety.

[5] = test system: mouse model of acute gastric ulcer; assay: Mouse model of acute gastric ulcer (anhydrous ethanol); type: in vivo
Experimental: In this embodiment, the function of the small peptides obtained in Embodiment 2 was validated using a mouse model of acute gastric ulcer.
Control group (model group): A mouse mode of acute gastric ulcer was constructed using anhydrous ethanol (0.1 mL/10 g) (referring to the literature of Study on Action of kangfuxin Solution on Experimental Gastric ulcer [J]. Chinese Traditional Patent Medicine, 2001, 23(2): 122-124. DOI: 10.3969/j.issn.1001-1528.). After modeling, the mice were administered with an equal volume of saline.
Blank group: The mice were administered with an equal volume of saline.
Drug treatment groups: A mouse mode of acute gastric ulcer was constructed by treating the mouse with anhydrous ethanol (0.1 mL/10 g). At 2 h, 12 h, and 22 h after modeling, the mice were administered with the rice polypeptide mixture (50 mg/kg) as the mixture group, small peptide P1 (0.5 mg/kg) as the P1 group, and small peptide P2 (0.5 mg/kg) as the P2 group, respectively.
Each group consisted of 8 mice. After 24 h of modeling, the mice were sacrificed, to extract the gastric tissue, and observe changes in bleeding points and ulcer area via gastric tissue dissection.

mucosal repair = assay: Screening of active monomers for mucosal repair effects; settings: repeated experiments and screening; in words
Description: The inventors observed the active monomers in the polypeptide mixture of Polimi-1 rice variety by mass spectrometry analysis of the polypeptides from various ordinary rice varieties and Polimi-1 rice variety. The small peptides identical to ordinary rice varieties and with high levels in ordinary rice varieties were excluded by a method of exclusion. Finally, the small peptides with higher levels in Polimi-1 rice variety and lower levels in other ordinary rice varieties were selected for further study, as well as those with higher levels in Polimi-1 rice variety and absent in other ordinary rice varieties. Since peptides with molecular weights below 1500 Daltons were extracted from the mixed polypeptide mixture previously obtained, other peptides above this threshold were excluded.

[6] = 500 and 1000 mg/kg daily, rats, in words

GASRIIGVDL [Small peptide P1, GASRIIGVDL]
Alaninetransaminase Activity, Average (Rat liver; 500 mg/kg daily): 27 IU/L
Alaninetransaminase Activity (Rat liver; 500 mg/kg daily): 35 IU/L and 44 IU/L and 20 IU/L and 15 IU/L and 21 IU/L and 27 IU/L
Alaninetransaminase Activity, Average (Rat liver; 1000 mg/kg daily): 39.83 IU/L
Alaninetransaminase Activity (Rat liver; 1000 mg/kg daily): 32 IU/L and 39 IU/L and 50 IU/L and 27 IU/L and 47 IU/L and 44 IU/L
hepatotoxicity (Rat liver; [6]): without hepatotoxicity
Rat body weight ([1]; Day 1): 210 g and 214 g and 218 g and 217 g and 216 g (2×) and 213 g
Rat body weight ([1]; Day 2): 212 g and 215 g (2×) and 219 g and 220 g and 222 g and 217 g
Rat body weight ([1]; Day 3): 212 g and 216 g and 220 g and 221 g and 224 g and 209 g and 218 g
Rat body weight ([1]; Day 4): 214 g and 218 g
Rat body weight ([1]; Day 5): 215 g and 220 g (2×) and 224 g and 228 g (2×) and 225 g
Rat body weight ([1]; Day 6): 215 g and 227 g and 224 g and 230 g and 229 g and 223 g and 228 g
Rat body weight ([1]; Day 7): 216 g and 228 g and 229 g (2×) and 236 g and 231 g and 224 g
Rat body weight ([1]; Day 8): 218 g and 229 g and 232 g and 235 g and 233 g and 228 g and 231 g
Rat body weight ([1]; Day 9): 220 g and 229 g and 234 g (2×) and 238 g and 233 g and 230 g
Rat body weight ([1]; Day 10): 225 g and 231 g and 237 g and 239 g and 238 g and 234 g and 236 g
Rat body weight ([1]; Day 11): 226 g and 232 g and 238 g and 241 g (2×) and 237 g and 239 g
Rat body weight ([1]; Day 12): 227 g and 233 g and 238 g and 243 g (2×) and 244 g and 239 g
Rat body weight ([1]; Day 13): 228 g and 235 g and 239 g and 244 g (2×) and 248 g and 240 g
Rat body weight ([1]; Day 14): 230 g and 237 g and 240 g and 247 g and 249 g and 243 g (2×)
Rat body weight ([1]; Day 15): 235 g and 238 g and 242 g and 248 g and 250 g and 245 g (2×)
effects on rat body weight ([1]; daily intragastric gavage for 14 days, in words): minimal effects
Blood Urea Nitrogen Levels (Rat kidney; 500 mg/kg daily): 25 mg/dL and 39 mg/dL and 29 mg/dL and 33 mg/dL and 36 mg/dL and 37 mg/dL
Blood Urea Nitrogen Levels (Rat kidney; 1000 mg/kg daily): 28 mg/dL and 30 mg/dL (2×) and 32 mg/dL and 36 mg/dL and 34 mg/dL
nephrotoxicity (Rat kidney; [6]): without hepatotoxicity and nephrotoxicity
viability of normal human liver cells L-02 [2]: no effect
hepatotoxicity ([2]; L-02 cells): no hepatotoxicity
viability of normal human kidney cells HK-02 (HK-2) [3]: no effect
nephrotoxicity ([3]; HK-2 cells): no nephrotoxicity
Ulcer index ([4]; 0.5 mg/kg twice daily for 3 days, 10 rats, ratio of ulcer area to gastric mucosal tissue area, Control group 40.5 ± 5.3): 5.8 ± 2.5%
Ulcer inhibition rate ([4]; 0.5 mg/kg twice daily for 3 days, percentage reduction in ulcer area compared to the Control group): 85.7%
anti-ulcer effects ([4]; P1, P2 0.5 mg/kg, mixture 50 mg/kg, in words): exhibit anti-ulcer effects
P versus Positive control group ([4]; anti-ulcer effects compared to omeprazole 2.6 mg/kg, P1, P2 0.5 mg/kg, mixture 50 mg/kg): > 0.05
Ulcer index ([5]; 0.5 mg/kg at 2 h, 12 h and 22 h after modeling, 8 mice, ratio of ulcer area to gastric mucosal tissue area, Control group 58.3 ± 10.1): 8.2 ± 3.1%
Ulcer inhibition rate ([5]; 0.5 mg/kg at 2 h, 12 h and 22 h after modeling, percentage reduction in ulcer area compared to the Control group): 85.9%
result compared to the mixture group ([5]; 0.5 mg/kg versus mixture 50 mg/kg, in words): better results than the mixture in larger dose
anti-ulcer effects ([5]; 0.5 mg/kg, in words): excellent anti-ulcer effects
mucosal repair effects (mucosal repair): found to have mucosal repair effects
